Experimental data as given in ChEMBL document CHEMBL5365467 (J Med Chem, 2023).
pIC50: −log10 of the molar value.

Assays:
[1] = Tmax in non human primate at 2 mg/kg, po measured upto 24 hrs by LC-MS/MS analysis; type: ADME, organism-based; details: primates, in vivo
[2] = Metabolic stability in dog liver microsome assessed as parent compound remaining measured at 120 mins in presence of NADPH by LC-MS/MS analysis; type: ADME, Canis lupus familiaris; details: liver microsomes, read-out: Stability
[3] = Cmax in Beagle dog at 10 mg/kg, po measured upto 24 hrs by LC-MS/MS analysis; type: ADME, organism-based, Canis lupus familiaris; design: time < 24 hrs, dose 10 mg/kg, route po; details: in vivo
[4] = Volume of distribution at steady state in non human primate at 1 mg/kg, iv measured upto 24 hrs by LC-MS/MS analysis; type: ADME, organism-based; details: primates, in vivo, read-out: Vdss
[5] = Metabolic stability in mouse plasma assessed as parent compound remaining measured after 120 mins by LC-MS/MS analysis; type: ADME, cell-free; details: read-out: Stability
[6] = Metabolic stability in rat plasma assessed as parent compound remaining measured after 120 mins by LC-MS/MS analysis; type: ADME, cell-free; details: read-out: Stability
[7] = AUC (0 to t) in Beagle dog at 10 mg/kg, po measured upto 24 hrs by LC-MS/MS analysis; type: ADME, organism-based, Canis lupus familiaris; design: time < 24 hrs, dose 10 mg/kg, route po; details: in vivo
[8] = Metabolic stability in non human primate hepatocyte assessed as half life measured upto 120 mins by LC-MS/MS analysis; type: ADME, cell-based; details: primates, hepatocytes
[9] = Metabolic stability in non human primate liver microsome assessed as parent compound remaining measured at 120 mins in presence of NADPH by LC-MS/MS analysis; type: ADME; details: primates, liver microsomes, read-out: Stability
[10] = Metabolic stability in dog plasma assessed as parent compound remaining measured after 120 mins by LC-MS/MS analysis; type: ADME, cell-free, Canis lupus familiaris; details: read-out: Stability
[11] = Toxicity in CB17-SCID mouse assessed as body weight loss at 10 to 40 mg/kg, po administered for 21 days; type: organism-based; details: in vivo, 504 h, dose 10-40 mg/kg, time 21 day
[12] = Oral bioavailability in ICR mouse at 5 mg/kg measured upto 24 hrs by LC-MS/MS analysis; type: ADME, organism-based; details: in vivo
[13] = Half life in Beagle dog at 1 mg/kg, iv measured upto 24 hrs by LC-MS/MS analysis; type: ADME, organism-based, Canis lupus familiaris; details: in vivo
[14] = Volume of distribution at steady state in Beagle dog at 1 mg/kg, iv measured upto 24 hrs by LC-MS/MS analysis; type: ADME, organism-based, Canis lupus familiaris; details: in vivo, read-out: Vdss
[15] = Volume of distribution at steady state in Sprague-Dawley rat at 2 mg/kg, iv measured upto 24 hrs by LC-MS/MS analysis; details: in vivo
[16] = Clearance in Beagle dog at 1 mg/kg, iv measured upto 24 hrs by LC-MS/MS analysis; type: ADME, organism-based, Canis lupus familiaris; details: in vivo
[17] = Half life in Beagle dog at 10 mg/kg, po measured upto 24 hrs by LC-MS/MS analysis; type: ADME, organism-based, Canis lupus familiaris; details: in vivo
in vivo [18] = details: Sprague-Dawley, rat, po, 5 mg/kg
[19] = Tmax in ICR mouse at 5 mg/kg, po measured upto 24 hrs by LC-MS/MS analysis; type: ADME, organism-based; details: in vivo
[20] = Oral bioavailability in non human primate at 2 mg/kg measured upto 24 hrs by LC-MS/MS analysis; type: ADME, organism-based; details: primates, in vivo
[21] = target: Protein cereblon/Androgen receptor (Homo sapiens, UniProt P10275+Q96SW2, L702H/T878A); details: mda-pca-2b
[22] = AUC (0 to t) in non human primate at 1 mg/kg, iv measured upto 24 hrs by LC-MS/MS analysis; type: ADME, organism-based; design: dose 1 mg/kg, time < 24 hrs, route iv; details: primates, in vivo
[23] = Half life in non human primate at 2 mg/kg, po measured upto 24 hrs by LC-MS/MS analysis; type: ADME, organism-based; details: primates, in vivo
in vivo [24] = details: Sprague-Dawley, rat, iv, 2 mg/kg
[25] = Metabolic stability in non human primate liver microsome assessed as half life measured upto 45 mins in presence of NADPH by LC-MS/MS analysis; type: ADME; details: primates, liver microsomes
[26] = AUC (0 to t) in ICR mouse at 2 mg/kg, iv measured upto 24 hrs by LC-MS/MS analysis; type: ADME, organism-based; design: dose 2 mg/kg, time < 24 hrs, route iv; details: in vivo
[27] = Metabolic stability in mouse hepatocyte assessed as half life measured upto 120 mins by LC-MS/MS analysis; type: ADME, cell-based; details: hepatocytes
[28] = Metabolic stability in human hepatocyte assessed as half life measured upto 120 mins by LC-MS/MS analysis; type: ADME, cell-based; details: hepatocytes
[29] = Metabolic stability in dog plasma assessed as half life measured after 2 hrs by LC-MS/MS analysis; type: ADME, cell-free, Canis lupus familiaris
[30] = Metabolic stability in rat hepatocyte assessed as half life measured upto 120 mins by LC-MS/MS analysis; type: ADME, cell-based; details: hepatocytes
[31] = Metabolic stability in human liver microsome assessed as parent compound remaining measured at 120 mins in presence of NADPH by LC-MS/MS analysis; type: ADME; details: liver microsomes, read-out: Stability
[32] = Half life in Sprague-Dawley rat at 5 mg/kg, po measured upto 24 hrs by LC-MS/MS analysis; details: in vivo
[33] = Metabolic stability in mouse liver microsome assessed as parent compound remaining measured at 120 mins in presence of NADPH by LC-MS/MS analysis; type: ADME; details: liver microsomes, read-out: Stability
[34] = Half life in Sprague-Dawley rat at 2 mg/kg, iv measured upto 24 hrs by LC-MS/MS analysis; details: in vivo
[35] = Metabolic stability in mouse plasma assessed as half life measured after 2 hrs by LC-MS/MS analysis; type: ADME, cell-free
LNCaP = assay: Growth inhibition in human LNCaP cells assessed as reduction in cell viability
[36] = Metabolic stability in non human primate plasma assessed as parent compound remaining measured after 120 mins by LC-MS/MS analysis; type: ADME, cell-free; details: primates, read-out: Stability
[37] = Clearance in ICR mouse at 2 mg/kg, iv measured upto 24 hrs by LC-MS/MS analysis; type: ADME, organism-based; details: in vivo
[38] = Metabolic stability in human liver microsome assessed as half life measured upto 45 mins in presence of NADPH by LC-MS/MS analysis; type: ADME; details: liver microsomes
[39] = Metabolic stability in rat liver microsome assessed as half life measured upto 45 mins in presence of NADPH by LC-MS/MS analysis; type: ADME; details: liver microsomes
VCaP = assay: Antitumor activity against human VCaP cells xenografted in CB17-SCID mouse assessed as tumor growth inhibition at 40 mg/kg, po administered for 21 days; details: 504 h, read-out: TGI
[40] = Metabolic stability in dog hepatocyte assessed as half life measured upto 120 mins by LC-MS/MS analysis; type: ADME, cell-based, Canis lupus familiaris; details: hepatocytes
[41] = Half life in non human primate assessed as half life at 1 mg/kg, iv measured upto 24 hrs by LC-MS/MS analysis; type: ADME, organism-based; details: primates, in vivo
[42] = Half life in ICR mouse at 2 mg/kg, iv measured upto 24 hrs by LC-MS/MS analysis; type: ADME, organism-based; details: in vivo
[43] = Half life in ICR mouse at 5 mg/kg, po measured upto 24 hrs by LC-MS/MS analysis; type: ADME, organism-based; details: in vivo
[44] = Tmax in Sprague-Dawley rat at 5 mg/kg, po measured upto 24 hrs by LC-MS/MS analysis; type: ADME, organism-based; details: in vivo
[45] = AUC (0 to t) in Beagle dog at 1 mg/kg, iv measured upto 24 hrs by LC-MS/MS analysis; type: ADME, organism-based, Canis lupus familiaris; design: dose 1 mg/kg, time < 24 hrs, route iv; details: in vivo

Sequence of Protein cereblon/Androgen receptor (P10275 whole entry L702H/T878A, stated change not applied): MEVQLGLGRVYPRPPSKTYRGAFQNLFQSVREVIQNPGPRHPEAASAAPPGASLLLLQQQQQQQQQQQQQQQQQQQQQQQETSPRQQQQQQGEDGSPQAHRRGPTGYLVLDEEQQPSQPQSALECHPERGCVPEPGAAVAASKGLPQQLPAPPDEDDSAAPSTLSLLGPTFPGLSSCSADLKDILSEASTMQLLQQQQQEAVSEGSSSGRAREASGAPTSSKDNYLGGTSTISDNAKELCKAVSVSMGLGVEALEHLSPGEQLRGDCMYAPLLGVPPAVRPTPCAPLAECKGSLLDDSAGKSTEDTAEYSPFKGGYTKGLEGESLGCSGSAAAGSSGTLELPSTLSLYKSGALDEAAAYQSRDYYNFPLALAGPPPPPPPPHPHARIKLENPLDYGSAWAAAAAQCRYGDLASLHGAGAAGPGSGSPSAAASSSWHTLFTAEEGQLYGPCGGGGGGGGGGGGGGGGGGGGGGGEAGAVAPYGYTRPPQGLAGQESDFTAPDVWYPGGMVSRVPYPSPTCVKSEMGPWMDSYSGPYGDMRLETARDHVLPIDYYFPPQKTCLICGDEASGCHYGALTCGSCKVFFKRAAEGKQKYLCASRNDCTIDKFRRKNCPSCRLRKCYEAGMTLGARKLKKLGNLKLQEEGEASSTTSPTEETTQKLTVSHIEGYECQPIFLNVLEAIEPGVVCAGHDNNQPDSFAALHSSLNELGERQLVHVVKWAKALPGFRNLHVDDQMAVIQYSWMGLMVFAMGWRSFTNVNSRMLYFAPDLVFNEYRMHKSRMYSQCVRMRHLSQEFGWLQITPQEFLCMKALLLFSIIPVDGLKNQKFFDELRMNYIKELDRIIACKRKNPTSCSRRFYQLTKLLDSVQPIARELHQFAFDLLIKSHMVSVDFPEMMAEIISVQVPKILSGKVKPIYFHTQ
Sequence of Protein cereblon/Androgen receptor (Q96SW2 whole entry, stated change not applied): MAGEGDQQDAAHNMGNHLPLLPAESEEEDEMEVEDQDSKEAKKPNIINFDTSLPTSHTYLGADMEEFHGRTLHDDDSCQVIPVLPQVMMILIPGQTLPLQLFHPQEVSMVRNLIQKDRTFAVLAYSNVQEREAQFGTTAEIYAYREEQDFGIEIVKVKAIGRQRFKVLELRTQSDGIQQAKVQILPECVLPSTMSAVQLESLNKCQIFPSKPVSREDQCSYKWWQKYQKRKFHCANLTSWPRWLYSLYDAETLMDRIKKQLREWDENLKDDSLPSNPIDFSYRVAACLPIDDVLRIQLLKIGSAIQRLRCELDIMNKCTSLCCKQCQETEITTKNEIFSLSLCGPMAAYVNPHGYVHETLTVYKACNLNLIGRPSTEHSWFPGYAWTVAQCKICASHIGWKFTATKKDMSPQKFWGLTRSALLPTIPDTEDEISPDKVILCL

Compound: C[C@H]1CC2(CCN(c3ccc(C(=O)N4CCC(CN5Cc6cc7c(cc6C5)C(=O)N(C5CCC(=O)NC5=O)C7=O)CC4)cc3)CC2)CN1c1ccc(C#N)c(Cl)c1 (some centres not stated)
- Tmax [1]: 3.33 h
- remaining at 2 h [2]: 87%
- Cmax [3]: 1030 ng/mL
- Vd [4]: 2.07 L/kg
- remaining at 2 h [5]: 62%
- remaining at 2 h [6]: 52%
- AUC(0-t) at 24 h [7]: 15200 ng·h/mL
- half-life [8]: > 120 min
- remaining at 2 h [9]: 82%
- remaining at 2 h [10]: 71%
- Activity [11]: Non-Toxic
- bioavailability [12]: 67%
- half-life [13]: 594 min
- Vd [14]: 1.74 L/kg
- Vd at 24 h [15]: 1.7 L/kg
- clearance [16]: 3.17 mL/min/kg
- half-life [17]: 1640 min
- AUC(0-t) at 24 h (in vivo [18]): 6020 ng·h/mL
- Tmax [19]: 2 h
- bioavailability [20]: 99%
- DC50 [21]: 8 nM
- AUC(0-t) at 24 h [22]: 5170 ng·h/mL
- half-life [23]: 577 min
- AUC(0-t) at 24 h (in vivo [24]): 5490 ng·h/mL
- half-life at […] [25]: > 60 min
- AUC(0-t) at 24 h [26]: 50500 ng·h/mL
- half-life [27]: > 120 min
- half-life [28]: > 120 min
- half-life [29]: > 120 min
- half-life [30]: > 120 min
- remaining at 2 h [31]: 84%
- half-life at 24 h [32]: 336 min
- remaining at 2 h [33]: 82%
- half-life at 24 h [34]: 270 min
- half-life [35]: > 120 min
- pIC50 (LNCaP): 8.55
- remaining at 2 h [36]: 92%
- clearance [37]: 0.667 mL/min/kg
- half-life at […] [38]: > 60 min
- half-life at […] [39]: > 60 min
- inhibition in vivo at 40 mg/kg (VCaP): 85%
- half-life [40]: > 120 min
- half-life [41]: 600 min
- half-life [42]: 258 min
- half-life [43]: 264 min
- Tmax [44]: 4 h
- AUC(0-t) at 24 h [45]: 4860 ng·h/mL
